According to PubChem BioAssay AID602133 (Sanford-Burnham Center for Chemical Genomics, 2011):
Calls of active or inactive are those of the source. No rule for the calls is given here.

Molecular target: glucose-6-phosphate dehydrogenase-6-phosphogluconolactonase (Plasmodium falciparum 3D7)
Assay: inhibition of P. falciparum G6PD rate – biochemical, kinetic direct NADPH detection, set 2, orthogonal assay for PfG6PD antimalarial inhibitor project, SAR follow-up (AID 602133)
Details: recombinant PfG6PD

Row | IC50 | SMILES
1 | 43 µM | CCN(CC)CCCC(C)Nc1ccnc2cc(Cl)ccc12 (stereo not drawn)
2 | 4.84 µM | CCN1CCC[C@@H]1CNC(=O)c1ccc2c(c1)NC(=O)c1ccccc1S2
3 | 4.75 µM | CCN(CC)CCNC(=O)c1ccc2c(c1)NC(=O)/C(=C/c1ccccc1F)S2
4 | 2.88 µM | CCN1CCCC1CNC(=O)c1ccc2c(c1)NC(=O)/C(=C/c1ccc3ccccc3c1)S2 (stereo not drawn)
5 | 24.4 µM | CC(C)(C)OC(=O)N1CCCC1CNC(=O)c1ccc2c(c1)NC(=O)/C(=C/c1ccccc1F)S2 (stereo not drawn)
6 | 67.8 µM | CN(C)c1ccccc1CNC(=O)c1ccc2c(c1)NC(=O)/C(=C/c1ccccc1F)S2
7 | 4.65 µM | CCN1CCC[C@H]1CNC(=O)c1ccc2c(c1)NC(=O)/C(=C/c1ccccc1F)S2
8 | 9.97 µM | CCC(C)N1CCCC1CNC(=O)c1ccc2c(c1)NC(=O)c1ccccc1S2 (stereo not drawn)
9 | 46.4 µM | CCN1CCC[C@H]1CNC(=O)c1ccc2c(c1)NC(=O)c1ccccc1S2
10 | 35 µM | NC1CCN(C(=O)c2ccc3c(c2)NC(=O)/C(=C/c2ccccc2F)S3)C1 (stereo not drawn)
11 | 1.94 µM | CCN1CCC[C@@H]1CNC(=O)c1ccc2c(c1)NC(=O)/C(=C/c1ccccc1F)S2
12 | > 80 µM (inactive) | O=C(NCCN1CCOCC1)c1ccc2c(c1)NC(=O)c1ccccc1S2
13 | > 80 µM (inactive) | NC1CCN(C(=O)c2ccc3c(c2)NC(=O)c2ccccc2S3)C1 (stereo not drawn)
14 | 18.3 µM | O=C(NCCN1CCCCC1)c1ccc2c(c1)NC(=O)c1ccccc1S2
15 | 2.06 µM | CCN1CCCC1CNC(=O)c1ccc2c(c1)NC(=O)/C(=C/c1ccc(F)cc1)S2 (stereo not drawn)
16 | > 80 µM (inactive) | NCCNC(=O)c1ccc2c(c1)NC(=O)c1ccccc1S2
17 | 13.3 µM | CCC(C)N(CCNC(=O)c1ccc2c(c1)NC(=O)c1ccccc1S2)C1CCCCC1 (stereo not drawn)
18 | > 80 µM (inactive) | CCN1CCCC1CNC(=O)c1ccc2c(c1)NC(=O)C(Cc1ccccc1F)S2 (stereo not drawn)
